Marks after values point to notes of the source that are not given here.

A short description of series [1]: Plasma and brain levels after oral dosing in sound-sensitive mice. The conditions noted are these: alone or in combination with levetiracetam. Here is the method: Male genetically sound-sensitive mice (17-30 g; N=10), derived from a DBA strain originally selected by Dr Lehmann of the Laboratory of Acoustic Physiology (Paris) and bred in the UCB Pharma Sector husbandry unit since 1978, were submitted to the induction of audiogenic seizures. Levetiracetam (5.4 mg/kg) and sodium valproate (166.2 mg/kg) were administered orally, alone or in combination, 60 minutes before the induction of audiogenic seizures. For testing audiogenic seizure, the mice were placed in the cages, one mouse per cage, in the sound-attenuated chamber. After a period of habituation of 30 seconds, the acoustic stimulus (90 dB, 10-20 kHz) was delivered for 30 seconds via the loud speakers. During this interval, the mice were observed and the presence of the 3 phases of the seizure activity, namely wild running, clonic and tonic convulsions, was recorded.
In all animals, blood samples were collected immediately after the seizure test (I h after dosing) by cardiac puncture under light carbon dioxide anesthesia, into heparinised microtubes. […] Levetiracetam was measured in plasma and brain samples by validated gas chromatography assay with mass detection. With sodium valproate, fluorescence polarization immunoassays were used.
The mean value plus standard deviation was calculated for plasma and brain concentrations of valproate and levetiracetam, and for the brain/plasma ratio. […]

Series [2] deals with sound-sensitive mice. The series is described as follows: Rotarod test in sound-sensitive mice. The conditions noted are these: combined treatment with 5.5 mg/kg levetiracetam. In general terms: Falling from the rotarod earlier than controls is read as motor impairment.
Series [3] has as its system epilepsy. The conditions noted are these: in vivo; cited from earlier work.
The test system of series [4] is diabetic rats (streptozocin-induced diabetic neuropathy). The series is described as follows: Randall and Selitto test, mechanical hyperalgesia in streptozotocin diabetic rats. The series is classed as in vivo, rat. From the text: In order to study the activity of levetiracetam with respect to chronic or neuropathic pain, the Applicant carried out a series of experiments based on the Randall test “A method for measurement of analgesic activity on inflamed tissue; Arch. Int. pharmacodyn., 1957, CXI, No4. P 409-419”. By virtue of this protocol, it was possible to determine the ability of levetiracetam to correct hyperalgesia secondary to induction of a neuropathic problem of metabolic origin in a rodent.
The diabetic neuropathy thereby induced allowed the correction of the hyperalgesia caused by the use of levetiracetam to be measured.
The animals used for these experiments were male Sprague-Dawley rats (Charles River, France), weighing 250-280 grams (g), which had undergone induction of diabetes one week after receipt. Male Sprague-Dawley rats (200-220 g) received one interperitoneal injection of streptozocin (75 mg/kg, i.p.) (Zanosar, Upjohn, France) dissolved in distilled water. Hyperglycaemia was confirmed one week after induction by determining the quantity of blood glucose (caudal puncture) using a Dextrostix reactive strip (Ames) read using a calorimeter (Ames Division, Miles Laboratoires, France). Animals with more than 14 millimoles (mM) were considered to be diabetic. The pain thresholds were determined 3 weeks after induction of diabetes.
This model was used in accordance with the description in COURTEIX et al., “Streptozocin-induced diabetic rats. Behavioural evidence for a model of chronic pain” Pain (1993), vol. 53, p81-88. The study was performed using the following compounds: • […]: (Laboratories UCB), dissolved in distilled water. • CARBAMAZEPINE: (Sigma), dissolved in hydroxy propel methylcellulose.
As has already been mentioned above, the test explained below was performed to stimulate a reaction in the animal with a mechanical nociceptive stimulus to a hind paw. An increasing pressure was applied using an analgesia meter (Ugo Basile, type 7200), until a cry was emitted which was considered to be the pain threshold, expressed in grams.
After determining the base thresholds, the animals received the study treatments (vehicle, levetiracetam, 17, 54, 95.2 and 120 mg/kg, carbamazepine, 10 and 30 mg/kg) administered intraperitoneally (i.p.) using the equal block method to avoid any chronobiological influence. The effects of different treatments were thus determined during the same time period. The reaction thresholds were measured 15, 30, 45, 60, 90, 120 and 180 minutes (min) after administration. All of the experiments were performed blind with 8 different animals per treatment.
The results are expressed as means±standard error of mean (S.E.M.).
The dose which could overcome 50% of the hyperalgesia induced by diabetes was calculated as the “anti-hyperalgesic dose effective 50”.
Statistical comparison was carried out by means of a two-way analysis of variance followed by Fischer's PLSD multiple comparison test to analyze the temporal effect.

Turning to `CCC1(c2ccccc2)C(=O)NC(=O)NC1=O` [phenobarbital, reference compound], the “plasma concentrations and brain/plasma ratio alone vs in combination with levetiracetam (in words)” value in series [1] is on record as “unchanged”. Moreover, the “impairment of rotarod performance under combined treatment (in words)” value (“impairment of rotarod performance” for short) in series [2] is “not affected”.
In the case of `O=C1CN=C(c2ccccc2Cl)c2cc([N+](=O)[O-])ccc2N1` [clonazepam], in series [2], the “impairment of rotarod performance” value is recorded as “not affected”.
For the compound `CC[C@H](C(N)=O)N1CCCC1=O` [(R)-(−)-α-ethyl-2-oxo-1-pyrrolidine-acetamide], the “activity in the treatment of epilepsy (in words)” value in series [3] is “completely devoid of activity”.
On to `CNC1=Nc2ccc(Cl)cc2C(c2ccccc2)=[N+]([O-])C1` [chlordiazepoxide], for which the “impairment of rotarod performance” value in series [2] was “not affected”.
With `NC(=O)N1c2ccccc2C=Cc2ccccc21` [Carbamazepine, reference compound], the vocalization threshold was 300.9 (12.31) g in series [4] (carbamazepine 10 mg/kg i.p. group, before diabetes (baseline), mean (SEM)); 217.5 g in series [4] (carbamazepine 10 mg/kg i.p., 15 min after injection); 333.8 (14.66)* g in series [4] (carbamazepine 10 mg/kg i.p., 30 min after injection); 273.8 g in series [4] (carbamazepine 10 mg/kg i.p., 45 min after injection); 206.3 (10.51)* g in series [4] (carbamazepine 10 mg/kg i.p., 60 min after injection); 187.5 (8.02) g in series [4] (carbamazepine 10 mg/kg i.p., 90 min after injection). In addition, the vocalization threshold in series [4] (carbamazepine 10 mg/kg i.p., 120 min after injection) was 174.4 (3.95) g; in series [4] (carbamazepine 10 mg/kg i.p., 180 min after injection), 174.4 (3.95) g; in series [4] (carbamazepine 10 mg/kg i.p., after diabetes, 0 min (base threshold)), 170.6 (5.26) g; in series [4] (carbamazepine 30 mg/kg i.p. group, before diabetes (baseline), mean (SEM)), 280.3 (9.92) g; in series [4] (carbamazepine 30 mg/kg i.p., 15 min after injection), 450.0 g; in series [4] (carbamazepine 30 mg/kg i.p., 30 min after injection), 425.6 (39.98)* g. The vocalization threshold was 311.3 g in series [4] (carbamazepine 30 mg/kg i.p., 45 min after injection); 230.6 (24.86)* g in series [4] (carbamazepine 30 mg/kg i.p., 60 min after injection); 196.9 g in series [4] (carbamazepine 30 mg/kg i.p., 90 min after injection); 174.4 (7.99) g in series [4] (carbamazepine 30 mg/kg i.p., 120 min after injection); 170.6 (6.30) g in series [4] (carbamazepine 30 mg/kg i.p., 180 min after injection); 152.8 (8.01) g in series [4] (carbamazepine 30 mg/kg i.p., after diabetes, 0 min (base threshold)). For the same compound, the “spontaneous motor activity (not quantified)” value in series [4] (carbamazepine 30 mg/kg i.p., delayed effect, 30 min after injection) is recorded as “reduction in spontaneous motor activity”. In addition, in series [4] (i.p., diabetic rats), the “Effect on diabetic hyperalgesia (in words)” value is “complete reversal of diabetic hyperalgesia for the 2 doses used”.

Values taken from patent US6903130B1, “Pyrrolidineacetamide derivative alone or in combination for treatment of cns disorders” (UCB S.A., priority 1999, dated 2005).
